Experimental data taken from patent publication US8592403B2, “Diazepine and diazocane compounds as MC4 agonists” (Pfizer Limited, priority 2008, dated 2013).

How the values were obtained:
[1] = In vitro metabolism rate determination, human liver microsome (HLM) assay; assay type: in vitro ADME; conditions: for microsomal CLint at 1 μM: human, liver microsomes, read-out: HLM: Clint, app; for HLM: Clint, app: human liver microsomes, unit assumed
Outline: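 Human liver microsomes at 0.5 nmol cytochrome P450/ml with 1 μM substrate, pre-warmed 5 min at 37° C, reaction started with NADP; samples taken 0–60 min and terminated. Substrate loss measured; first-order rate constant from log-linear regression converted to half-life or Clint (μl/min/mg protein).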

MC4 receptor (MC4R) = biological target: T1, MC4 receptor (MC4R) (Homo sapiens, UniProt P32245); assay: Nle4, D-Phe7-α-MSH inhibition at the MC4 receptor (competition binding, SPA, CHO-CRE MC4R membranes)
T1 construct: expressed in transfected cells; host or cells: CHO-CRE MC4R cells (membranes)
T1 sequence (P32245 whole entry): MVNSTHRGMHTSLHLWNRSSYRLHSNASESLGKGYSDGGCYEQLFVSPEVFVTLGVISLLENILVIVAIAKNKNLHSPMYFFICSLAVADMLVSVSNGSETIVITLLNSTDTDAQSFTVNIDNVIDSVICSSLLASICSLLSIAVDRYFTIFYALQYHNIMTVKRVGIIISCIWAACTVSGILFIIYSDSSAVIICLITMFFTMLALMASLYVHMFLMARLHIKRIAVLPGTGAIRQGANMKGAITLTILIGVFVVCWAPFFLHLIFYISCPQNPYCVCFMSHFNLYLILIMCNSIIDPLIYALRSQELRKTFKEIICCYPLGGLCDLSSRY
Outline: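 Competition binding by SPA used CHO-CRE MC4R membranes on WGA beads (0.15 ug membrane/well) with 0.06 nM [125I] Nle4, D-Phe7-α-MSH and 11 half-log competitor concentrations in duplicate. Buffer was 25 mM HEPES pH 7 with MgCl2, CaCl2, Pluronic F68 and protease inhibitors; incubation was 12 hours at room temperature. Non-specific binding was set with 100 nM SHU9119, and Ki was calculated.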

MC4 receptor = MC4 receptor (Homo sapiens, UniProt P32245); assay: MC4 EC50 functional potency (protocol E of US2005/0176772 / WO 2005/077935); assay type: cell-based
Chain of MC4 receptor (P32245 whole entry): as above
Description: The compounds of formula (I) of the present invention have utility as MCR4 agonists in the treatment of various disease states.
MC5 and MC4 EC50 activity was determined as described by assay protocols D and E, respectively, in US2005/0176772 (pages 28-30).

human MC3 receptors = biological target: T2, human MC3 receptors (Homo sapiens, UniProt P41968); assay: In vitro agonist potency (EC50) at melanocortin receptor type 3, cAMP in recombinant cell line; assay type: cell-based
T2 construct: stably transfected with full length cDNA encoding human MC1 or MC3 receptors; expressed in transfected cells
T2 sequence (P41968 whole entry): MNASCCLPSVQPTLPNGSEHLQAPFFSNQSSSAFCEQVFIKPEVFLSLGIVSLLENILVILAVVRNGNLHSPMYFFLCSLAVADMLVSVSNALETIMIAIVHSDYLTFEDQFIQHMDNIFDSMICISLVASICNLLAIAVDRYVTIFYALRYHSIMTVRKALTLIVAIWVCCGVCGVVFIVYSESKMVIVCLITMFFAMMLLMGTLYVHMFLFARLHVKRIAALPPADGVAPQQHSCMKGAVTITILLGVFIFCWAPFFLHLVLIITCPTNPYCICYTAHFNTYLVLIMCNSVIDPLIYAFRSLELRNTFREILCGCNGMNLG
Description: Measurement of In Vitro Agonist Potency (EC50) of Compounds Against Melanocortin Receptors Type 1 and 3 (MC1 and MC3).
Activation of melanocortin (MC) receptors by agonists results in activation of intracellular adenylate cyclase enzymes that synthesise the second messenger signalling molecule, adenosine 3′,5′-cyclic monophosphate (cAMP). Changes in cAMP levels following treatment of recombinant MC1 and MC3 cell lines with test compound were measured and an MC1 and MC3 potency estimate (EC50) calculated as follows: […]
Human embryonic kidney (HEK) or Chinese hamster ovary cell lines stably transfected with full length cDNA encoding human MC1 or MC3 receptors, respectively, were established using standard molecular biology methods. Test compounds were dissolved in dimethyl sulfoxide (DMSO) at 4 mM. 11 point half log unit increment dilution series of test compound, typically starting at 50 uM were prepared in a buffer comprised of phosphate buffered saline (PBS), 2.5% DMSO and 0.05% pluronic F-127 surfactant. Freshly cultured cells at 80-90% confluence were harvested and re-suspended in Dulbecco's Modified Eagle's Medium (DMEM). Cells (10,000 for MC3, 20,000 for MC1) were added to the test compound dilution series in a 384 well assay plate and incubated for 1 hour at 37° C. The relative cAMP concentration in each well was then measured using a β-galactosidase enzyme fragment complementation method purchased in kit form as the Discoverx cAMP II kit from GE Healthcare/Amersham Biosciences UK. In the case of MC1,3-Isobutyl-1-methylxanthine (IBMX) at a concentration of 750 μM was included in DMEM as the cells were re-suspended for assay. […] Sigmoidal curves were fitted to plots of log10 inhibitor concentration vs percent effect using a custom made software application called SIGHTS and EC50 estimates determined by the software as the concentration of test compound giving an effect half way between the bottom and top asymptotes of the sigmoidal dose response curve. Each experiment included an EC50 determination for alpha melanocyte stimulating hormone, which was used as a standard to track assay consistency and allow fair comparison between EC50 estimates obtained in different experiments.

CYP3A4 = biological target: T3, CYP3A4 (Homo sapiens, UniProt P08684); assay: High density DDI 3 μM cocktail screen in human liver microsomes, midazolam probe; assay type: in vitro ADME; conditions: human, liver microsomes, probe midazolam, read-out: % inhibition 3A4 @ 3 μM
T3 construct: utilizes human liver microsomes together with isoform-specific clinical drug probes; from tissue; host or cells: human liver microsomes
T3 sequence (P08684 whole entry, canonical isoform): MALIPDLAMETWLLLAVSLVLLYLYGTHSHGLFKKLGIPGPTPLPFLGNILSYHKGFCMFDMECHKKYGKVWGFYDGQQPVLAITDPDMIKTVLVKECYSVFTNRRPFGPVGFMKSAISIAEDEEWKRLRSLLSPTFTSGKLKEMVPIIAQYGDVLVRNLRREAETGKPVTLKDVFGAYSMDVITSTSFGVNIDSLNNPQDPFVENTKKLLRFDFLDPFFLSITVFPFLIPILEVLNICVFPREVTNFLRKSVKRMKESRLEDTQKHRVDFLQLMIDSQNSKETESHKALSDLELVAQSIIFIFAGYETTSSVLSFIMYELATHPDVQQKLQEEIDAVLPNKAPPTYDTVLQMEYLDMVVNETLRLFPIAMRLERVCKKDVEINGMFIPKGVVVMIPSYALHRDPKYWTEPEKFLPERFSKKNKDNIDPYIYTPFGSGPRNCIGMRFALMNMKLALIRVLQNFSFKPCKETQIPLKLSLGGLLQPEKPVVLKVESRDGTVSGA
Outline: (§1)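 Pooled human liver microsomes incubated with isoform-specific clinical probe substrates as a cocktail (midazolam for CYP3A4), with or without test compound at 3 μM. Metabolite formation followed over time by LC-MS/MS. Inhibition expressed as a single-point percentage.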

MC3 receptor (MC3R) = biological target: T4, MC3 receptor (MC3R) (Homo sapiens, UniProt P41968); assay: Nle4, D-Phe7-α-MSH inhibition at the MC3 receptor (competition binding, SPA, CHO-CRE MC3R membranes)
T4 construct: expressed in transfected cells; host or cells: CHO-CRE MC3R cells (membranes)
T4 sequence (P41968 whole entry): as the sequence (P41968 whole entry) above
Outline: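 Competition binding by SPA used CHO-CRE MC3R membranes on WGA beads with 0.06 nM [125I]Nle4,D-Phe7-α-MSH and 11 half-log competitor concentrations. Buffer was 25 mM HEPES, MgCl2, CaCl2, 1% Pluronic F68, pH7, incubated 12 h at room temperature. Non-specific binding was defined with 100 nM SHU9119, and Ki values were derived.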

cytochrome P450 3A4 = biological target: T5, cytochrome P450 3A4 (Homo sapiens, UniProt P08684); assay: High density DDI 3 μM cocktail screen in human liver microsomes, midazolam probe; assay type: in vitro ADME; conditions: 3 µM
T5 construct: utilizes human liver microsomes together with isoform-specific clinical drug probes; from tissue; host or cells: human liver microsomes
T5 sequence (P08684 whole entry, canonical isoform): as the sequence (P08684 whole entry, canonical isoform) above
Outline: as §1

SMILES	microsomal CLint at 1 μM [1] [µL/min/mg]	Ki (MC4 receptor (MC4R)) [nM]	EC50 (MC4 receptor) [nM]	EC50 (human MC3 receptors) [nM]	inhibition at 3 µM (CYP3A4) [%]	Ki (MC3 receptor (MC3R)) [nM]	HLM: Clint, app [1] [µL/min/mg]	% inhibition 3A4 @ 3 μM (cytochrome P450 3A4) [%]
COc1ccc([C@@H]2CN(c3ccc(=O)n(C)n3)C[C@H]2C(=O)N2CCC[C@@H](c3ccc(Cl)cc3)N(C(=O)C(C)C)CC2)c(F)c1 [Example 31]	21.8	28.2	1.23	412	40.8			
COC(=O)N1CCN(C(=O)[C@@H]2CN(c3ccc(C#N)nn3)CC2c2ccc(OC)cc2F)CCC[C@H]1c1ccc(Cl)cc1 (stereo partly shown) [Example 89]		31.3	14.3	764		402		
COC(=O)N1CCN(C(=O)[C@@H]2CN(c3ccc(C#N)nn3)C[C@H]2c2ccc(OC)cc2F)CCC[C@@H]1c1ccc(Cl)cc1 [Example 88]		24	5.38	148		153		
COC(=O)N1CCN(C(=O)[C@@H]2CN(c3cccnn3)C[C@H]2c2ccc(F)cc2F)CCCC1c1ccccc1 (mixture of isomers) [Example 100]	83	189	7.16	436	65.5			
COc1ccc([C@@H]2CN(c3ccc(=O)n(C)n3)C[C@H]2C(=O)N2CCC[C@@H](c3ccc(Cl)cc3)N(C(=O)C3CC3)CC2)c(F)c1 [Example 29]	21.4		2.23	506	60.8			
CS(=O)(=O)N1CCN(C(=O)[C@@H]2CN(c3ccc(C#N)cn3)C[C@H]2c2ccc(F)cc2F)CCCC1c1ccccc1 (single isomer, unassigned) [Example 40]			29	607			156	79.5
COc1ccc([C@@H]2CN(c3ccc(=O)[nH]n3)C[C@H]2C(=O)N2CCCC(c3ccc(Cl)cc3)N(S(C)(=O)=O)CC2)c(F)c1 (single isomer, unassigned) [Example 114]		20.8	73.4			1150	16.4	27.5
